Test results as given in ChEMBL document CHEMBL3885881, “DrugMatrix”.

Species: Rattus norvegicus
Test: DrugMatrix - Regimen: Daily Repeat
Assay type: toxicity, organism-based, Sprague-Dawley
Parameters: regimen Daily Repeat, gender Male, age 6-8 weeks
Details: in vivo, po, route oral GAVAGE, vehicle .5 % CMC; for BASOPHIL / EOSINOPHIL / ERYTHROCYTE COUNT / HEMATOCRIT / HEMOGLOBIN / LEUKOCYTE COUNT / LYMPHOCYTE / MEAN CORPUSCULAR HEMOGLOBIN / MEAN CORPUSCULAR HEMOGLOBIN CONCENTRATION / MEAN CORPUSCULAR VOLUME / MONOCYTE / NEUTROPHIL / PLATELET COUNT: tissue Blood; for ALANINE AMINOTRANSFERASE / ALBUMIN / ALKALINE PHOSPHATASE / ASPARTATE AMINOTRANSFERASE / BLOOD UREA NITROGEN / CHLORIDE / CHOLESTEROL / CREATINE PHOSPHOKINASE / CREATININE / GLUCOSE / PHOSPHORUS / POTASSIUM / SODIUM / TOTAL BILIRUBIN / TOTAL PROTEIN: tissue Plasma
[1] = 0 mg/kg, 72 h, dose level Control, time 3 day
[2] = 0 mg/kg, 120 h, dose level Control, time 5 day
[3] = 32 mg/kg, 72 h, dose level Low, time 3 day
[4] = 32 mg/kg, 120 h, dose level Low, time 5 day

SMILES: CC[C@H]1OC(=O)[C@H](C)[C@@H](O[C@H]2C[C@@](C)(OC)[C@@H](O)[C@H](C)O2)[C@H](C)[C@@H](O[C@@H]2O[C@H](C)C[C@H](N(C)C)[C@H]2O)[C@](C)(O)C[C@@H](C)/C(=N\OCOCCOC)[C@H](C)[C@@H](O)[C@]1(C)O [ROXITHROMYCIN]
- BASOPHIL [1]: 1.52%
- EOSINOPHIL [1]: 0.98%
- ERYTHROCYTE COUNT [1]: 6.96 x10E6/uL
- HEMATOCRIT [1]: 44.65%
- HEMOGLOBIN [1]: 13.62 G/DL
- LEUKOCYTE COUNT [1]: 9.83 x10E3/uL
- LYMPHOCYTE [1]: 76.48%
- MEAN CORPUSCULAR HEMOGLOBIN [1]: 19.57 pg
- MEAN CORPUSCULAR HEMOGLOBIN CONCENTRATION [1]: 30.47 G/DL
- MEAN CORPUSCULAR VOLUME [1]: 64.22 fL
- MONOCYTE [1]: 2.13%
- NEUTROPHIL [1]: 18.6%
- PLATELET COUNT [1]: 1217.17 x10E3/uL
- ALANINE AMINOTRANSFERASE [1]: 41 u/L
- ALBUMIN [1]: 3.77 G/DL
- ALKALINE PHOSPHATASE [1]: 411.83 u/L
- ASPARTATE AMINOTRANSFERASE [1]: 62.83 u/L
- BLOOD UREA NITROGEN [1]: 15.17 mg/dL
- CHLORIDE [1]: 104.33 MEQ/L
- CHOLESTEROL [1]: 71.17 mg/dL
- CREATINE PHOSPHOKINASE [1]: 123.5 u/L
- CREATININE [1]: 0.55 mg/dL
- GLUCOSE [1]: 182.67 mg/dL
- PHOSPHORUS [1]: 11.23 mg/dL
- POTASSIUM [1]: 7.03 MEQ/L
- SODIUM [1]: 148 MEQ/L
- TOTAL BILIRUBIN [1]: 0.57 mg/dL
- TOTAL PROTEIN [1]: 6.85 G/DL
- BASOPHIL [2]: 1.35%
- EOSINOPHIL [2]: 0.43%
- ERYTHROCYTE COUNT [2]: 6.96 x10E6/uL
- HEMATOCRIT [2]: 44.35%
- HEMOGLOBIN [2]: 13.98 G/DL
- LEUKOCYTE COUNT [2]: 9.45 x10E3/uL
- LYMPHOCYTE [2]: 80.83%
- MEAN CORPUSCULAR HEMOGLOBIN [2]: 20.1 pg
- MEAN CORPUSCULAR HEMOGLOBIN CONCENTRATION [2]: 31.52 G/DL
- MEAN CORPUSCULAR VOLUME [2]: 63.72 fL
- MONOCYTE [2]: 2.37%
- NEUTROPHIL [2]: 14.05%
- PLATELET COUNT [2]: 1298 x10E3/uL
- ALANINE AMINOTRANSFERASE [2]: 42.17 u/L
- ALBUMIN [2]: 3.77 G/DL
- ALKALINE PHOSPHATASE [2]: 419 u/L
- ASPARTATE AMINOTRANSFERASE [2]: 66.67 u/L
- BLOOD UREA NITROGEN [2]: 16.67 mg/dL
- CHLORIDE [2]: 103.17 MEQ/L
- CHOLESTEROL [2]: 66.33 mg/dL
- CREATINE PHOSPHOKINASE [2]: 148.33 u/L
- CREATININE [2]: 0.58 mg/dL
- GLUCOSE [2]: 196.83 mg/dL
- PHOSPHORUS [2]: 11.8 mg/dL
- POTASSIUM [2]: 6.47 MEQ/L
- SODIUM [2]: 148.33 MEQ/L
- TOTAL BILIRUBIN [2]: 0.53 mg/dL
- TOTAL PROTEIN [2]: 6.77 G/DL
- BASOPHIL [3]: 1.33%
- EOSINOPHIL [3]: 0.27%
- ERYTHROCYTE COUNT [3]: 7.39 x10E6/uL
- HEMATOCRIT [3]: 47.23%
- HEMOGLOBIN [3]: 14.73 G/DL
- LEUKOCYTE COUNT [3]: 12.3 x10E3/uL
- LYMPHOCYTE [3]: 88.63%
- MEAN CORPUSCULAR HEMOGLOBIN [3]: 19.9 pg
- MEAN CORPUSCULAR HEMOGLOBIN CONCENTRATION [3]: 31.13 G/DL
- MEAN CORPUSCULAR VOLUME [3]: 63.97 fL
- MONOCYTE [3]: 1.7%
- NEUTROPHIL [3]: 7.6%
- PLATELET COUNT [3]: 1462 x10E3/uL
- ALANINE AMINOTRANSFERASE [3]: 37.67 u/L
- ALBUMIN [3]: 3.7 G/DL
- ALKALINE PHOSPHATASE [3]: 340.33 u/L
- ASPARTATE AMINOTRANSFERASE [3]: 58.33 u/L
- BLOOD UREA NITROGEN [3]: 12.33 mg/dL
- CHLORIDE [3]: 104.67 MEQ/L
- CHOLESTEROL [3]: 59.67 mg/dL
- CREATINE PHOSPHOKINASE [3]: 128 u/L
- CREATININE [3]: 0.57 mg/dL
- GLUCOSE [3]: 224 mg/dL
- PHOSPHORUS [3]: 13.23 mg/dL
- POTASSIUM [3]: 6.93 MEQ/L
- SODIUM [3]: 148.67 MEQ/L
- TOTAL BILIRUBIN [3]: 0.4 mg/dL
- TOTAL PROTEIN [3]: 6.7 G/DL
- BASOPHIL [4]: 1.4%
- EOSINOPHIL [4]: 0.3%
- ERYTHROCYTE COUNT [4]: 7.37 x10E6/uL
- HEMATOCRIT [4]: 44.93%
- HEMOGLOBIN [4]: 14.13 G/DL
- LEUKOCYTE COUNT [4]: 11.7 x10E3/uL
- LYMPHOCYTE [4]: 81.47%
- MEAN CORPUSCULAR HEMOGLOBIN [4]: 19.27 pg
- MEAN CORPUSCULAR HEMOGLOBIN CONCENTRATION [4]: 31.5 G/DL
- MEAN CORPUSCULAR VOLUME [4]: 61.2 fL
- MONOCYTE [4]: 2.4%
- NEUTROPHIL [4]: 13.53%
- PLATELET COUNT [4]: 1353.33 x10E3/uL
- ALANINE AMINOTRANSFERASE [4]: 35.67 u/L
- ALBUMIN [4]: 3.57 G/DL
- ALKALINE PHOSPHATASE [4]: 391.67 u/L
- ASPARTATE AMINOTRANSFERASE [4]: 57.67 u/L
- BLOOD UREA NITROGEN [4]: 12.67 mg/dL
- CHLORIDE [4]: 103 MEQ/L
- CHOLESTEROL [4]: 66.33 mg/dL
- CREATINE PHOSPHOKINASE [4]: 131.67 u/L
- CREATININE [4]: 0.57 mg/dL
- GLUCOSE [4]: 185.67 mg/dL
- PHOSPHORUS [4]: 12.77 mg/dL
- POTASSIUM [4]: 6.73 MEQ/L
- SODIUM [4]: 148.33 MEQ/L
- TOTAL BILIRUBIN [4]: 0.3 mg/dL
- TOTAL PROTEIN [4]: 6.23 G/DL
